Four sequences from patent US20130326728A1, “AGENTS FOR INCREASED RESISTANCE AGAINST OXIDATIVE STRESS CONDITIONS” (KATHOLIEKE UNIVERSITEIT LEUVEN, priority 2010, published 2013) can be followed below.

The subject of experiment [1] is Saccharomyces cerevisiae strain BY4741. The experiment is described as follows: Halo test of H2O2 tolerance of OSIP-overexpressing yeast. It counts as cell-based. The following applies: 15 μL of 240 mM H2O2, galactose vs glucose agar, 48 h at 30° C.; versus negative controls. The protocol: Resistance of the selected yeast transformants and the two positive control transformants against oxidative stress induced by H2O2 was additionally assayed in a halo test, by spotting 15 μL of 240 mM H2O2 on SC-ura agar, containing either glucose or galactose, and inoculated with 1/200 of overnight yeast culture as described previously (23). After 48 h of incubation at 30° C., diameters of the halos were measured.
The halo-test comprises a predefined but continuous concentration gradient of H2O2, applied to inoculated agar plates. Upon incubation, circles (halos) of growth inhibition are visible. By comparing the diameter of the halos of plates with yeast grown on glucose (not allowing for expression of the OSIP) and galactose (inducing overexpression of the OSIP) the effect of the OSIP on oxidative stress tolerance was quantified.

Experiment [2] relates to WT yeast. The experiment is described as follows: Survival assay of peroxide-treated WT yeast with exogenous OSIP. The note with it: for effect on survival of yeast cells after treatment with peroxide (in words): exogenous addition of the peptides. The format is cell-based. The protocol:
(§1) ROS, after H2O2 treatment in the absence or presence of 500 μM OSIP, were determined using 2,7-dichlorodihydrofluorescein diacetate (H2DCFDA) staining as described previously (24). Survival of WT yeast in PBS following H2O2 treatment in the absence or presence of 500 μM OSIP was assessed as described (25).
(§2) The effect of OSIP108 on endogenous ROS levels induced by peroxide in yeast were evaluated. Peroxide-induced ROS in yeast in the absence and presence of OSIP108 were measured using 2,7-dichlorodihydrofluorescein diacetate (H2DCFDA) (FIG. 3A). […] Moreover, we found the survival of peroxide-treated yeast cells (5 mM) to increase 27-fold upon incubation with 500 μM OSIP108 (FIG. 3B).

Experiment [3] has as its system peroxide-induced ROS in yeast. The experiment is described as follows: ROS accumulation assay (H2DCFDA) in peroxide-treated yeast with exogenous OSIP. The note with it: 500 μM peptide, compared to mock treatment. It counts as cell-based. The protocol: as §1, §2
Experiment [4] deals with human hepatoma cell line HepG2. Nature of the experiment: HepG2 cell viability (MTT) in presence of copper or cisplatin. It counts as cell-based. The protocol:
The mean and SE of three experiments is shown. No: viability of cells without addition of peptide; OSIP: OSIP108 was added simultaneously added to cells together with Cu; OSIP pre, cells were preincubated with OSIP108 for 12 h prior to addition of Cu.
The human hepatoma cell line HepG2 which naturally expresses hATP7B was incubated with 100 μM of peptide OSIP108. The viability of cells was determined after 48 h exposure to toxic copper concentrations of 0.75 mM by MTT assay. The viability was calculated relative to cells that receive no copper (100%).

Experiment [5] relates to CHO cell lines expressing ATP7b mutant H1069Q. The experiment is described as follows: Viability (MTT) of CHO cells expressing ATP7b mutant H1069Q under toxic copper. It counts as cell-based. The note with it: 100 μM OSIP108, 0.75 mM copper, 48 h. The protocol:
(§3) No: viability of cells without addition of peptide; OSIP: OSIP108 was added simultaneously added to cells together with Cu; and OSIP pre: cells were preincubated with the peptide for 12 h prior to addition of Cu.
(§4) CHO cell lines expressing either ATP7b or ATP7b mutant H1069Q (a mutation frequently found in patients having Wilson's Disease) were incubated with OSIP108 (100 μM). The viability of cells was determined after 48 h exposure to toxic copper concentrations of 0.75 mM by MTT assay and calculated relative to cells that receive no copper (100%).

Experiment [6] has as its system Col-0 A. thaliana plants. Nature of the experiment: Paraquat lesion diameter on A. thaliana leaves infiltrated with OSIP108. It counts as in vivo, Arabidopsis thaliana. The note with it: three days after paraquat (5 μl, 100 μM); leaf infiltrated with 100 μM OSIP108 24 h before; control 4.45±1.37 mm. The protocol:
At least twelve soil grown, 4 week old Col-0 A. thaliana plants, were used in which one leaf of each plant was syringe-infiltrated with 100 μM OSIP108 dissolved in 1% dimethyl sulphoxide (DMSO). At least 12 control plants were mock treated with 1% DMSO only. After 24 h incubation in the growth chamber, the plants were inoculated with a drop of 5 μl paraquat (100 μM). The lesion diameters caused by the paraquat treatment were measured and compared 2 and 3 days after the treatment.

Experiment [7] deals with yeast Δccc2 mutant. Nature of the experiment: Copper-induced growth inhibition of yeast Δccc2 mutant overexpressing the OSIP108 gene. The note with it: overexpression of the gene encoding OSIP108. The format is cell-based. The text has this: Copper ions are known to induce apoptosis of hepatocytes, one of the underlying mechanisms of copper-induced toxicity in Wilson's Disease (WD). WD is caused by mutations in the ATPase ATP7b.

Experiment [8] has as its system yeast Δccc2 mutant. Nature of the experiment: Exogenous OSIP108 on yeast Δccc2 mutant at lethal copper dose (MTT viability dye halo, ROS). The note with it: exogenous addition. It counts as cell-based. The protocol:
This was tested by spotting 5 μL of 10 mM OSIP108 onto agar plates containing a yeast Δccc2 mutant, 500 μM CuSO4 and a viability dye based on MTT. Plates were incubated for 24 h and placed at 4° C. for 2 days. Blue halos were indicative of surviving yeast cells.
(Tetrazolium dyes change colour on reduction, which living cells bring about.)

Experiment [9] concerns CHO cell lines expressing ATP7b. The experiment is described as follows: Viability (MTT) of CHO cells expressing ATP7b under toxic copper. It counts as cell-based. The note with it: 100 μM OSIP108, 0.75 mM copper, 48 h. The protocol: as §3, §4
Experiment [10] deals with yeast BY4741. The experiment is described as follows: Yeast growth inhibition by apoptosis-inducing compounds (OD600) with or without OSIP108. The format is cell-based, Saccharomyces cerevisiae. The protocol:
Yeast growth was monitored upon treatment with different apoptosis-inducing compounds in the presence (black bars) or absence (white bars) of 200 μM OSIP108. Percentage growth was calculated as the ratio of the OD600 of the treated culture over an unstressed yeast culture after 10 h (A) or 48 h (B) of incubation.
In this respect, in parallel with mitochondrial copper toxicity, the use of the other mitochondrial toxins, in casu valproic acid, tunicamycin, doxycyclin and cisplatin, expand the range of causes of mitochondrial dysfunction and help find a broader basis for compounds rescuing mitochondrial dysfunction. Optical density (OD600) of yeast BY4741 was monitored upon treatment with different apoptosis-inducing compounds in the presence or absence of 200 μM OSIP108. OSIP108 and apoptosis-inducers were added simultaneously to the yeast cells. Percentage growth was calculated as the ratio of the OD600 of the treated culture over an unstressed yeast culture after 10 h or 48 h of incubation. […] Also, OSIP108 but not OSIP(C3A) can rescue copper- and cisplatin-induced growth inhibition of yeast

“Also recorded” adds a separate entry of the source.

For the sequence “MIIINNDNYLLLFYNNN (listed as Arabidopsis thaliana) [SIP14—1]”, the “halo test: average difference in halo diameter / tolerance to H2O2” value in experiment [1] is “significant enhanced tolerance”. Further, in experiment [2], the “effect on survival of yeast cells after treatment with peroxide (in words)” value (“effect on survival of yeast cells” below) is “less effect than SIP108”. Besides, the “peroxide-induced endogenous ROS (DCF fluorescence intensity)” value (shortened to “peroxide-induced endogenous ROS”) in experiment [3] is “decrease in the amount of endogenous ROS”.

As to “MIIIYYCFIIIIN (listed as Arabidopsis thaliana) [SIP14—2]”, the “halo test: average difference in halo diameter / tolerance to H2O2” value in experiment [1] is listed as “significant enhanced tolerance”. Moreover, the “effect on survival of yeast cells” value in experiment [2] is on record as “less effect than SIP108”. Also, the “peroxide-induced endogenous ROS” value in [3] is reported as “decrease in the amount of endogenous ROS”.

“MLCVLQGLRE (listed as Arabidopsis thaliana) [OSIP108]”: the “halo test: average difference in halo diameter / tolerance to H2O2” value in experiment [1] is given as “significantly lower”. Moreover, the “increase of survival of peroxide-treated yeast cells” value in [2] (5 mM peroxide, 500 μM OSIP108) was found to be 27 fold. Further, in experiment [4] (FIG. 5, 100 μM OSIP108, 0.75 mM copper, 48 h, MTT), the “copper resistance of HepG2 (viability)” value is given as “significantly enhances copper resistance”. Further, the “survival of HepG2 cells in the presence of copper or cisplatin” value in [4] (pre-incubation with peptide) is “increased survival”. The “copper resistance / viability of CHO cells expressing ATP7b mutant H1069Q” value in experiment [5] was “enhanced the copper resistance; also recorded: significantly enhances copper resistance”. Further, in experiment [6], the average lesion diameter is 2.18±1.60 mm. For the same sequence, the “copper-induced growth inhibition of Δccc2 mutant” value in [7] is given as “could alleviate copper-induced growth inhibition”. The “copper-induced accumulation of reactive oxygen species (ROS) in Δccc2 mutant” value in [8] is listed as “reduced”. Moreover, the “viability of the Δccc2 yeast mutant” value in [8] (in presence of copper) is recorded as “increased viability”. The “survival of Δccc2 yeast mutant at lethal copper dose” value in experiment [8] (5 μL of 10 mM OSIP108 spotted, 500 μM CuSO4) was “induces survival”. Also, the “peroxide-induced endogenous ROS” value in [3] is “significantly lower”. In addition, the “copper resistance / viability of CHO cells expressing ATP7b” value in experiment [9] is listed as “enhanced the copper resistance; also recorded: significantly enhances copper resistance”. In experiment [10], the “rescue of copper- and cisplatin-induced growth inhibition of yeast” value was “can rescue”. Moreover, the “yeast growth in presence of cisplatin” value in experiment [10] (200 uM OSIP108, 250 and 125 μM cisplatin, compared to control treatment) is “significant increase in growth”. Besides, the “rescue of yeast growth inhibition by other apoptosis-inducers” value in experiment [10] (200 μM OSIP108, apoptosis-inducers other than cisplatin) is “fails to rescue”.

On to “MLMYRMRSGAN (listed as Arabidopsis thaliana) [SIP11]”, for which, in [1], the “halo test: average difference in halo diameter / tolerance to H2O2” value is reported as “significant enhanced tolerance”. The “effect on survival of yeast cells” value in experiment [2] is “less effect than SIP108”. Besides, the “peroxide-induced endogenous ROS” value in [3] is on record as “decrease in the amount of endogenous ROS”.
